Article PMC7614775 (Nature chemical biology, 2022)
Read-outs that look alike come from different tables or passages of the source.

Legend:
[1] = system: IFNα-stimulated human PBMCs; assay: Real-Time PCR of interferon-stimulated genes; format: cell-based; details: compound 2 h, then IFNα 16 h
primary human T cells = assay: T-cell viability (Near IR Live/Dead stain); format: cell-based; details: 24 h
[2] = system: IFNα-stimulated human PBMCs; assay: Multiplex immunoassay of cytokines/chemokines; format: cell-based; details: compound 2 h, then IFNα 100 ng/mL, 16 h
[3] = molecular target: TYK2 phosphorylation (pTYK2) (Homo sapiens, UniProt P29597); assay: TYK2 phosphorylation western blot in 22Rv1 cells expressing TYK2 variants; format: cell-based; details: WT-TYK2
Sequence of TYK2 phosphorylation (pTYK2) (P29597 whole entry): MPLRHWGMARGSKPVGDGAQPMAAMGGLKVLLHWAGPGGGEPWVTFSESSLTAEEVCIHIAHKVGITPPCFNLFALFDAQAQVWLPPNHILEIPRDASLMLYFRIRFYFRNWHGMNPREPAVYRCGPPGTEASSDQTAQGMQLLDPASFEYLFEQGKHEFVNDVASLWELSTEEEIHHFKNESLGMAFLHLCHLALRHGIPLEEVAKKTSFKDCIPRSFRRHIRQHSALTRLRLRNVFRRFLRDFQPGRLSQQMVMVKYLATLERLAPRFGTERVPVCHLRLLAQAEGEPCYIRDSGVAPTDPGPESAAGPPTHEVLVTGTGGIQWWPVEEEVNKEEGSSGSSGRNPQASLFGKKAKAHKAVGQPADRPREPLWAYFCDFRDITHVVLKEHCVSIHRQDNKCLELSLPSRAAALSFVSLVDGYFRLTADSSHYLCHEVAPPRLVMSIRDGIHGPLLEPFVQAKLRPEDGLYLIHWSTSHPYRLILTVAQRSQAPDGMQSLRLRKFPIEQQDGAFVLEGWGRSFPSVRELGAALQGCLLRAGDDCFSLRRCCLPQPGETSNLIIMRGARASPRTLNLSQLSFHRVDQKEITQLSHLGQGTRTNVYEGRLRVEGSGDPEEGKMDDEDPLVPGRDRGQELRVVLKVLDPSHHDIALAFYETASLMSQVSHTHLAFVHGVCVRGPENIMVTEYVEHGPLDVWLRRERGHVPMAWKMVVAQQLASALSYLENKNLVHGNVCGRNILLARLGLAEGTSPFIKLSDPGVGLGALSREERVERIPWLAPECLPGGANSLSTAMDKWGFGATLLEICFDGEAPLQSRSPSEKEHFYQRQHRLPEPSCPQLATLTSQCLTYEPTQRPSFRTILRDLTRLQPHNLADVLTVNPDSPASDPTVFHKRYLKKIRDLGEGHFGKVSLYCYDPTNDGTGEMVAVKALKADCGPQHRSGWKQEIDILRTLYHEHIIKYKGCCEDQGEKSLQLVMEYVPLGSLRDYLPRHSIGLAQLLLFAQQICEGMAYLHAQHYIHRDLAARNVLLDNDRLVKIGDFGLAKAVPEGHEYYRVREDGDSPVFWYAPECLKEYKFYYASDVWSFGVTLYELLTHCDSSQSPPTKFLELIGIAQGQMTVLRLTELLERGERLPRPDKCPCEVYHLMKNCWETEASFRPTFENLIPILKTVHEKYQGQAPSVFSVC

[4] = system: αCD3/αCD28-stimulated primary human T cells (CD25, CD69); assay: T-cell activation analysis by flow cytometry; format: cell-based; details: 24 h
[5] = system: IL-2-stimulated STAT5 phosphorylation; assay: Phospho-STAT western blot in human PBMCs; format: cell-based; details: 0.1–1 µM
JAK1_C817 = JAK1_C817 (Homo sapiens, UniProt P23458); assay: Untargeted cysteine MS-ABPP, human PBMCs treated in situ; format: binding
Sequence of JAK1_C817 (P23458 whole entry): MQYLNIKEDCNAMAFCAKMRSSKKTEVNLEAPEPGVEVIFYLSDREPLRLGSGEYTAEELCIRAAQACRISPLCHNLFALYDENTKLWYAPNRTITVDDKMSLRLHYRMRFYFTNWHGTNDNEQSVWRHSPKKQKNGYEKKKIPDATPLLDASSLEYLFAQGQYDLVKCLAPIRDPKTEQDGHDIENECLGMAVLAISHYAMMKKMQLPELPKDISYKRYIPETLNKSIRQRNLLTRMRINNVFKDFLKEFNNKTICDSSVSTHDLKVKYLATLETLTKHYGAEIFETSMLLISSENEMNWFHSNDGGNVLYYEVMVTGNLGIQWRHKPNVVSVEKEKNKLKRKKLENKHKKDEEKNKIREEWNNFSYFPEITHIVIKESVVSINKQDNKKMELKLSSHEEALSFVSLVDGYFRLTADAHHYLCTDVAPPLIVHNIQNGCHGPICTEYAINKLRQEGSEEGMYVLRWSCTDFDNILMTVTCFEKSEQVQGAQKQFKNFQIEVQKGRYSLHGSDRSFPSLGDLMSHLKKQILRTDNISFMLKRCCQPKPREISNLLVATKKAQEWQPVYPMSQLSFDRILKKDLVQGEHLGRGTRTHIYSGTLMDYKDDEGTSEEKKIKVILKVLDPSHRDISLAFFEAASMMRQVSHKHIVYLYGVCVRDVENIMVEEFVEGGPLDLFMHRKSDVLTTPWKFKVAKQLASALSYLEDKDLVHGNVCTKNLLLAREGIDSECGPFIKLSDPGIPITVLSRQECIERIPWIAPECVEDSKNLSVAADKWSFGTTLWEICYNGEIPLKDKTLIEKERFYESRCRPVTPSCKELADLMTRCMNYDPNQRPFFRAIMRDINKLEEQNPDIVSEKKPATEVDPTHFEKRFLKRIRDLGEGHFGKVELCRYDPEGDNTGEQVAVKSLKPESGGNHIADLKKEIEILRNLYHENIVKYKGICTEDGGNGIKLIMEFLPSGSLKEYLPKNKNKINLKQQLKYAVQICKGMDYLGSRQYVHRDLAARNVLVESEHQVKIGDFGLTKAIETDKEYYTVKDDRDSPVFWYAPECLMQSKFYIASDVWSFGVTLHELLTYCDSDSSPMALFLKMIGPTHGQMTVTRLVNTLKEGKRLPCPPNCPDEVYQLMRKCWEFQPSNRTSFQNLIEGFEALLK

[6] = system: prolactin (PRL)-stimulated STAT5 (JAK2-dependent) phosphorylation; assay: Phospho-STAT western blot in 22Rv1 cells expressing JAK1 variants; format: cell-based, human; details: 2 µM, 2 h
[7] = molecular target: JAK1 trans-phosphorylation (Homo sapiens, UniProt P23458); assay: Trans-phosphorylation assay in 22Rv1 cells; format: cell-based; details: cells expressing active WT-JAK1-FLAG; 2 µM, 2 h
Sequence of JAK1 trans-phosphorylation (P23458 whole entry): as above

[8] = system: αCD3/αCD28-stimulated primary human T cells (IFNγ, IL-2 secretion); assay: Cytokine secretion of activated T cells (ELISA); format: cell-based; details: αCD3/αCD28 co-stimulation, 24 h
[9] = system: IFNα-stimulated STAT1 phosphorylation; assay: HTRF phospho-STAT1 assay in human PBMCs; format: cell-based; details: read-out: IC50, IFNα-stimulated STAT1 phosphorylation (HTRF)
SLC66A3_C135 = molecular target: T1, SLC66A3_C135 (Homo sapiens, UniProt Q8N755); assay: Untargeted cysteine MS-ABPP, human PBMCs treated in situ; format: binding
T1 sequence (Q8N755 20-202): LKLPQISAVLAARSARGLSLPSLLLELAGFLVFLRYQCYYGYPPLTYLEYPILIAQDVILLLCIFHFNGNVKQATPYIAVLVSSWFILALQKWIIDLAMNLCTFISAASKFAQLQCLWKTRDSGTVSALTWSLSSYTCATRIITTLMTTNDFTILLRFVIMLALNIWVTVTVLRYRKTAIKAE

- effect on phosphorylation of the TYK2 activation loop [3]: inhibited
- %Engagement (JAK1_C817; 0.01 µM): 84%
- Engagement Ratio (DMSO/VVD-118313) (JAK1_C817; 0.01 µM): 6.3
- Engagement Ratio (DMSO/VVD-118313) (JAK1_C817; 0.1 µM): 20.0
- %Engagement (JAK1_C817; 1 µM): 96%
- Engagement Ratio (DMSO/VVD-118313) (JAK1_C817; 1 µM): 20.0
- %Engagement (JAK1_C817; 10 µM): 97%
- Engagement Ratio (DMSO/VVD-118313) (JAK1_C817; 10 µM): 20.0
- effect on trans-phosphorylation of inactive JAK1-HA variants [7]: completely blocked
- IC50 ([9]; media supplemented with 10% fetal bovine serum (FBS)): 46 nM
- IC50 ([9]; serum-free media): 32 nM
- Engagement Ratio (DMSO/VVD-118313) (SLC66A3_C135; 0.01 µM): 1.0
- %Engagement (SLC66A3_C135; 0.1 µM): 12%
- Engagement Ratio (DMSO/VVD-118313) (SLC66A3_C135; 0.1 µM): 1.1
- Engagement Ratio (DMSO/VVD-118313) (SLC66A3_C135; 1 µM): 4.4
- %Engagement (SLC66A3_C135; 10 µM): 99%
- Engagement Ratio (DMSO/VVD-118313) (SLC66A3_C135; 10 µM): 20.0
SMILES: CS(=O)(=O)N1CC[C@H](C#CC(=O)N2CCC[C@@H](c3ccc(Cl)c(Cl)c3)C2)C1 [VVD-118313]
- induction of interferon-stimulated genes (OAS1, MX1, IFIT1, CCL2) [1]: blocked the induction
- T-cell viability (primary human T cells): Neither compound affected
- induction of pro-inflammatory chemokines (CCL2/MCP-1, CXCL10/IP-10, CCL4/MIP-1β) [2]: near-completely suppressed
- CD25+ (% of live cells) ([4]; 0.4 μM, representative flow cytometry plot): 83%
- T-cell activation (proportion of CD25+ T-cells) ([4]; αCD3/αCD28 co-stimulation): partially inhibited
- early-stage activation marker CD69 ([4]; αCD3/αCD28 co-stimulation): Neither compound affected
- inhibition of IL-2-stimulated STAT5 phosphorylation [5]: ~ 70%
- effect on PRL-induced STAT5 phosphorylation [6]: inactive
- production of IL-2 [8]: slightly increased
- secretion of IFNγ [8]: partially blocked
